The record followed here is ChEMBL document CHEMBL3045858, “Weed control and sesame (Sesamum indicum L.) response to preplant incorporated herbicides and method of incorporation” (Crop Prot, 2007).

Data set [1] concerns Amaranthus tuberculatus. The data set is described as follows: Herbicidal activity against Amaranthus tuberculatus at 0.84 kg/ha applied using mixing wheel cultivator. In kind it is functional.
Data set [2] deals with Sesamum indicum. The data set is described as follows: Phytotoxicity against Sesamum indicum (sesame) plant assessed as stunt in growth at 0.42 kg/ha applied using mixing wheel cultivator (reference value: 0%). In kind it is organism-based. As to conditions: in vivo, other.
Data set [3] concerns Sesamum indicum. Description: Phytotoxicity against Sesamum indicum (sesame) plant assessed as yield at 0.84 kg/ha applied using mixing wheel cultivator (reference value: 333 kg/ha). Type of data set: organism-based. As to conditions: in vivo, other.
The test system of data set [4] is Sesamum indicum. Description: Phytotoxicity against Sesamum indicum (sesame) plant assessed as stunt in growth at 1.68 kg/ha applied using mixing wheel cultivator (reference value: 0%). In kind it is organism-based. The following applies: in vivo, other.
Data set [5] has as its system Amaranthus tuberculatus. The data set is described as follows: Herbicidal activity against Amaranthus tuberculatus at 1.68 kg/ha applied using mixing wheel cultivator. In kind it is functional.
Data set [6] relates to Urochloa platyphylla. The data set is described as follows: Herbicidal activity against Urochloa platyphylla at 0.42 kg/ha applied using mixing wheel cultivator. Type of data set: functional.
In data set [7] the test system is Sesamum indicum. The data set is described as follows: Phytotoxicity against Sesamum indicum (sesame) plant assessed as yield at 1.68 kg/ha applied using mixing wheel cultivator (reference value: 333 kg/ha). In kind it is organism-based. As to conditions: in vivo, other.
In data set [8] the test system is Sesamum indicum. Description: Phytotoxicity against Sesamum indicum (sesame) plant assessed as sesame stand at 0.42 kg/ha applied using mixing wheel cultivator relative to control. Type of data set: organism-based. The following applies: in vivo, other.
For data set [9], the system named is Sesamum indicum. Description: Phytotoxicity against Sesamum indicum (sesame) plant assessed as stunt in growth at 0.84 kg/ha applied using mixing wheel cultivator (reference value: 0%). In kind it is organism-based. The following applies: in vivo, other.
The test system of data set [10] is Urochloa platyphylla. The data set is described as follows: Herbicidal activity against Urochloa platyphylla at 1.68 kg/ha applied using mixing wheel cultivator. Type of data set: functional.
In data set [11] the test system is Sesamum indicum. The data set is described as follows: Phytotoxicity against Sesamum indicum (sesame) plant assessed as sesame stand at 0.84 kg/ha applied using mixing wheel cultivator relative to control. The following applies: in vivo, other. In kind it is organism-based.
The subject of data set [12] is Amaranthus tuberculatus. Description: Herbicidal activity against Amaranthus tuberculatus at 0.42 kg/ha applied using mixing wheel cultivator. Type of data set: functional.
The subject of data set [13] is Sesamum indicum. The data set is described as follows: Phytotoxicity against Sesamum indicum (sesame) plant assessed as yield at 0.42 kg/ha applied using mixing wheel cultivator (reference value: 333 kg/ha). Type of data set: organism-based. As to conditions: in vivo, other.
Data set [14] has as its system Urochloa platyphylla. The data set is described as follows: Herbicidal activity against Urochloa platyphylla at 0.84 kg/ha applied using mixing wheel cultivator. Type of data set: functional.
Data set [15] deals with Sesamum indicum. The data set is described as follows: Phytotoxicity against Sesamum indicum (sesame) plant assessed as sesame stand at 1.68 kg/ha applied using mixing wheel cultivator relative to control. In kind it is organism-based. The following applies: in vivo, other.
Data set [16] concerns Sesamum indicum. Description: Phytotoxicity against Sesamum indicum (sesame) plant assessed as sesame stand at 0.56 kg/ha formulated as prowl EC applied using mixing wheel cultivator relative to control. In kind it is organism-based. The following applies: in vivo, other.
The test system of data set [17] is Sesamum indicum. Description: Phytotoxicity against Sesamum indicum (sesame) plant assessed as sesame stand at 1.12 kg/ha formulated as prowl EC applied using mixing wheel cultivator relative to control. In kind it is organism-based. The following applies: in vivo, other.
Data set [18] deals with Sesamum indicum. Description: Phytotoxicity against Sesamum indicum (sesame) plant assessed as stunt in growth at 1.12 kg/ha formulated as prowl EC applied using mixing wheel cultivator (reference value: 0%). Type of data set: organism-based. As to conditions: in vivo, other.
Data set [19] relates to Amaranthus tuberculatus. The data set is described as follows: Herbicidal activity against Amaranthus tuberculatus at 1.12 kg/ha formulated as prowl H2O applied using mixing wheel cultivator. Type of data set: functional.
Data set [20] concerns Sesamum indicum. Description: Phytotoxicity against Sesamum indicum (sesame) plant assessed as stunt in growth at 1.4 kg/ha formulated as prowl H2O applied using mixing wheel cultivator (reference value: 0%). Type of data set: organism-based. As to conditions: in vivo, other.
For data set [21], the system named is Sesamum indicum. Description: Phytotoxicity against Sesamum indicum (sesame) plant assessed as sesame stand at 2.24 kg/ha formulated as prowl EC applied using mixing wheel cultivator relative to control. In kind it is organism-based. The following applies: in vivo.
The subject of data set [22] is Urochloa platyphylla. Description: Herbicidal activity against Urochloa platyphylla at 2.24 kg/ha formulated as prowl EC applied using mixing wheel cultivator. Type of data set: functional.
The test system of data set [23] is Sesamum indicum. Description: Phytotoxicity against Sesamum indicum (sesame) plant assessed as stunt in growth at 1.12 kg/ha formulated as prowl H2O applied using mixing wheel cultivator (reference value: 0%). Type of data set: organism-based. As to conditions: in vivo, other.
The test system of data set [24] is Amaranthus tuberculatus. The data set is described as follows: Herbicidal activity against Amaranthus tuberculatus at 0.56 kg/ha formulated as prowl EC applied using mixing wheel cultivator. Type of data set: functional.
In data set [25] the test system is Urochloa platyphylla. The data set is described as follows: Herbicidal activity against Urochloa platyphylla at 1.12 kg/ha formulated as prowl EC applied using mixing wheel cultivator. In kind it is functional.
Data set [26] deals with Sesamum indicum. The data set is described as follows: Phytotoxicity against Sesamum indicum (sesame) plant assessed as Sesame stand at 1.4 kg/ha formulated as prowl H2O applied using mixing wheel cultivator relative to control. Type of data set: organism-based. As to conditions: in vivo, other.
The subject of data set [27] is Sesamum indicum. Description: Phytotoxicity against Sesamum indicum (sesame) plant assessed as yield at 2.24 kg/ha formulated as prowl EC applied using mixing wheel cultivator (reference value: 333 kg/ha). Type of data set: organism-based. As to conditions: in vivo, other.
The subject of data set [28] is Amaranthus tuberculatus. The data set is described as follows: Herbicidal activity against Amaranthus tuberculatus at 1.4 kg/ha formulated as prowl H2O applied using mixing wheel cultivator. In kind it is functional.
Data set [29] relates to Urochloa platyphylla. Description: Herbicidal activity against Urochloa platyphylla at 1.12 kg/ha formulated as prowl H2O applied using mixing wheel cultivator. Type of data set: functional.
Data set [30] deals with Sesamum indicum. The data set is described as follows: Phytotoxicity against Sesamum indicum (sesame) plant assessed as yield at 1.12 kg/ha formulated as prowl H2O applied using mixing wheel cultivator (reference value: 333 kg/ha). Type of data set: organism-based. The following applies: in vivo, other.
Data set [31] has as its system Sesamum indicum. The data set is described as follows: Phytotoxicity against Sesamum indicum (sesame) plant assessed as sesame stand at 1.12 kg/ha formulated as prowl H2O applied using mixing wheel cultivator relative to control. Type of data set: organism-based. As to conditions: in vivo, other.
Data set [32] deals with Sesamum indicum. The data set is described as follows: Phytotoxicity against Sesamum indicum (sesame) plant assessed as yield at 1.4 kg/ha formulated as prowl H2O applied using mixing wheel cultivator (reference value: 333 kg/ha). As to conditions: in vivo, other. In kind it is organism-based.
Data set [33] relates to Sesamum indicum. The data set is described as follows: Phytotoxicity against Sesamum indicum (sesame) plant assessed as stunt in growth at 2.24 kg/ha formulated as prowl EC applied using mixing wheel cultivator (reference value: 0%). Type of data set: organism-based. As to conditions: in vivo, other.
For data set [34], the system named is Sesamum indicum. Description: Phytotoxicity against Sesamum indicum (sesame) plant assessed as yield at 1.12 kg/ha formulated as prowl EC applied using mixing wheel cultivator (reference value: 333 kg/ha). The following applies: in vivo, other. In kind it is organism-based.
The test system of data set [35] is Urochloa platyphylla. Description: Herbicidal activity against Urochloa platyphylla at 0.84 kg/ha formulated as prowl H2O applied using mixing wheel cultivator. Type of data set: functional.
Data set [36] deals with Sesamum indicum. Description: Phytotoxicity against Sesamum indicum (sesame) plant assessed as yield at 0.56 kg/ha formulated as prowl EC applied using mixing wheel cultivator (reference value: 333 kg/ha). In kind it is organism-based. As to conditions: in vivo, other.
Data set [37] relates to Sesamum indicum. Description: Phytotoxicity against Sesamum indicum (sesame) plant assessed as yield at 0.84 kg/ha formulated as prowl H2O applied using mixing wheel cultivator (reference value: 333 kg/ha). In kind it is organism-based. The following applies: in vivo, other.
Data set [38] concerns Urochloa platyphylla. The data set is described as follows: Herbicidal activity against Urochloa platyphylla at 1.4 kg/ha formulated as prowl H2O applied using mixing wheel cultivator. Type of data set: functional.
Data set [39] deals with Amaranthus tuberculatus. Description: Herbicidal activity against Amaranthus tuberculatus at 1.12 kg/ha formulated as prowl EC applied using mixing wheel cultivator. In kind it is functional.
In data set [40] the test system is Amaranthus tuberculatus. The data set is described as follows: Herbicidal activity against Amaranthus tuberculatus at 2.24 kg/ha formulated as prowl EC applied using mixing wheel cultivator. Type of data set: functional.
In data set [41] the test system is Sesamum indicum. The data set is described as follows: Phytotoxicity against Sesamum indicum (sesame) plant assessed as stunt in growth at 0.84 kg/ha formulated as prowl H2O applied using mixing wheel cultivator (reference value: 0%). Type of data set: organism-based. As to conditions: in vivo, other.
Data set [42] concerns Urochloa platyphylla. Description: Herbicidal activity against Urochloa platyphylla at 0.56 kg/ha formulated as prowl EC applied using mixing wheel cultivator. Type of data set: functional.
The subject of data set [43] is Amaranthus tuberculatus. Description: Herbicidal activity against Amaranthus tuberculatus at 0.84 kg/ha formulated as prowl H2O applied using mixing wheel cultivator. Type of data set: functional.
In data set [44] the test system is Sesamum indicum. The data set is described as follows: Phytotoxicity against Sesamum indicum (sesame) plant assessed as stunt in growth at 0.56 kg/ha formulated as prowl EC applied using mixing wheel cultivator (reference value: 0%). In kind it is organism-based. The following applies: in vivo, other.
Data set [45] relates to Sesamum indicum. Description: Phytotoxicity against Sesamum indicum (sesame) plant assessed as sesame stand at 0.84 kg/ha formulated as prowl H2O applied using mixing wheel cultivator relative to control. Type of data set: organism-based. As to conditions: in vivo, other.

Each structure is given as a SMILES string.

On to `CCCN(CCC)c1c([N+](=O)[O-])cc(C(F)(F)F)cc1[N+](=O)[O-]` [TRIFLURALIN], for which the Activity is 85% in the data set on Amaranthus tuberculatus [1]; 0% in the data set on Sesamum indicum [2]; 4% with Sesamum indicum [4]; 92% in the data set on Amaranthus tuberculatus [5]; 86% with Urochloa platyphylla [6]; 99% in the data set on Sesamum indicum [8]. The Activity in the data set with Sesamum indicum [9] was determined as 2%; with Urochloa platyphylla [10] it was 96%; in the data set with Sesamum indicum [11] it was 76%; in the data set on Amaranthus tuberculatus [12] it was 90%; in the data set on Urochloa platyphylla [14] it was 91%; in the data set with Sesamum indicum [15] it was 67%. Moreover, the Crop_yield turned out to be 342 kg/ha in the data set on Sesamum indicum [3], 406 kg/ha in the data set on Sesamum indicum [7] and 587 kg/ha in the data set with Sesamum indicum [13].
`C=C(C)CN(CC)c1c([N+](=O)[O-])cc(C(F)(F)F)cc1[N+](=O)[O-]` [ETHALFLURALIN]: the Activity with Amaranthus tuberculatus [1] amounted to 92%; in the data set with Sesamum indicum [2] it was 4%; with Sesamum indicum [4], 4%; in the data set with Amaranthus tuberculatus [5] it was 93%; with Urochloa platyphylla [6], 69%; in the data set with Sesamum indicum [8], 95%. For the same molecule, the Activity with Sesamum indicum [9] is 2%; in the data set on Urochloa platyphylla [10], 97%; with Sesamum indicum [11], 78%; in the data set on Amaranthus tuberculatus [12] it was 82%; in the data set on Urochloa platyphylla [14] it was 95%; in the data set on Sesamum indicum [15], 52%. The values for the Crop_yield with Sesamum indicum [3], in the data set with Sesamum indicum [7] and with Sesamum indicum [13] were 527 kg/ha, 143 kg/ha and 428 kg/ha, respectively.
Take `CCC(CC)Nc1c([N+](=O)[O-])cc(C)c(C)c1[N+](=O)[O-]` [PENDIMETHALIN]: the Activity with Sesamum indicum [16] amounted to 80%; with Sesamum indicum [17] it was 55%; with Sesamum indicum [18], 3%; in the data set with Amaranthus tuberculatus [19] it was 84%; in the data set on Sesamum indicum [20], 14%; with Sesamum indicum [21], 27%. Besides, the Activity in the data set on Urochloa platyphylla [22] was 85%; in the data set on Sesamum indicum [23], 4%; with Amaranthus tuberculatus [24] it was 85%; in the data set with Urochloa platyphylla [25], 83%; in the data set with Sesamum indicum [26] it was 38%; in the data set with Amaranthus tuberculatus [28], 83%. Further, the Activity with Urochloa platyphylla [29] amounted to 80%; in the data set with Sesamum indicum [31] it was 53%; with Sesamum indicum [33] it was 16%; in the data set with Urochloa platyphylla [35], 71%; in the data set with Urochloa platyphylla [38], 73%; in the data set on Amaranthus tuberculatus [39], 74%. Moreover, the Activity in the data set on Amaranthus tuberculatus [40] worked out at 90%; with Sesamum indicum [41], 0%; with Urochloa platyphylla [42], 63%; with Amaranthus tuberculatus [43], 96%; in the data set on Sesamum indicum [44] it was 3%; with Sesamum indicum [45], 90%. Besides, the Crop_yield in the data set with Sesamum indicum [27] turned out to be 233 kg/ha; with Sesamum indicum [30], 288 kg/ha; in the data set with Sesamum indicum [32], 240 kg/ha; with Sesamum indicum [34], 382 kg/ha; in the data set on Sesamum indicum [36], 367 kg/ha; in the data set with Sesamum indicum [37] it was 534 kg/ha.
